From the Deep4Chem optical property database
Each block holds one molecule with its values, some of them ahead of it.

Experiment: photoluminescence quantum yield (fraction); solvent given as SMILES
[1] = in O=P(c1ccccc1)(c1ccccc1)c1ccccc1Oc1ccccc1P(=O)(c1ccccc1)c1ccccc1

SMILES: COc1ccccc1-c1nc2c3cccnc3c3ncccc3c2n1-c1ccccc1
photoluminescence quantum yield (in Cc1ccccc1): 0.064

SMILES: Cc1ccc(C)c2nc3c(=O)[nH]c(=O)[nH]c3nc12
photoluminescence quantum yield (in CC#N): 0.08

SMILES: O=C1OC(=O)C2=C1[Se][C@]13C2=C[C@H](c2ccccc21)c1ccccc13
photoluminescence quantum yield (in ClCCl): 0.62

SMILES: CC(C)[Si]1(C(C)C)c2cc(C#N)ccc2-c2ccc(N(C)C)cc21
photoluminescence quantum yield (in C1CCCCC1): 0.6 | photoluminescence quantum yield (in CC#N): 0.65 | photoluminescence quantum yield (in CCO): 0.74 | photoluminescence quantum yield (in CCOCC): 0.66 | photoluminescence quantum yield (in CS(C)=O): 0.51 | photoluminescence quantum yield (in ClCCl): 0.79 | photoluminescence quantum yield (in c1ccccc1): 0.62

SMILES: CCn1c2ccccc2c2cc(-c3cc(-c4ccc5c(c4)c4ccccc4n5CC)nc(-c4ccc(C#N)cc4)n3)ccc21
photoluminescence quantum yield (in C1CCOC1): 0.08 | photoluminescence quantum yield (in CCOC(C)=O): 0.09 | photoluminescence quantum yield (in CN(C)C=O): 0.07 | photoluminescence quantum yield (in Cc1ccccc1): 0.34 | photoluminescence quantum yield (in ClCCl): 0.11

SMILES: c1ccc(N2c3ccc4ccccc4c3-c3c4ccccc4cc[n+]3[B-]2(c2ccccc2)c2ccccc2)cc1
photoluminescence quantum yield (in Cc1ccccc1): 0.17

SMILES: F[B-]1(F)Oc2ccccc2-c2cc(-n3c4ccc(-c5ccccc5)cc4c4cc(-c5ccccc5)ccc43)cc[n+]21
photoluminescence quantum yield [1]: 0.7

SMILES: CC1(C)c2ccccc2N(c2ccccc2)c2ccc(-c3ccc(C(=O)c4ccc(-c5ccc6c(c5)C(C)(C)c5ccccc5N6c5ccccc5)cc4)cc3)cc21
photoluminescence quantum yield [1]: 0.53

SMILES: CC1=CC(C)=[N+]2C1=C(c1c3ccccc3c(C)c3ccccc13)c1c(C)cc(C)n1[B-]2(F)F
photoluminescence quantum yield (in CC#N): 0.002 | photoluminescence quantum yield (in CCCCCC): 0.91 | photoluminescence quantum yield (in CCO): 0.005 | photoluminescence quantum yield (in CN(C)C=O): 0.003 | photoluminescence quantum yield (in Cc1ccccc1): 0.95 | photoluminescence quantum yield (in ClCCl): 0.011

SMILES: COc1cc(/C=C/c2nc3ccccc3s2)c(OC)cc1/C=C/c1ccncc1
photoluminescence quantum yield (in C1CCOC1): 0.75 | photoluminescence quantum yield (in CC#N): 0.5 | photoluminescence quantum yield (in CN(C)C=O): 0.67 | photoluminescence quantum yield (in Cc1ccccc1): 0.86

SMILES: CC(C)(C)c1ccc(C2=c3c(c4ccc(C(C)(C)C)cc4c4cc(C(C)(C)C)ccc34)=[N+]3C2=C(c2ccccc2)c2c(-c4ccc(C(C)(C)C)cc4)c4c5ccc(C(C)(C)C)cc5c5cc(C(C)(C)C)ccc5c4n2[B-]3(F)F)cc1
photoluminescence quantum yield (in C1CCCCC1): 0.44 | photoluminescence quantum yield (in C1CCOC1): 0.45 | photoluminescence quantum yield (in CC#N): 0.27 | photoluminescence quantum yield (in Cc1ccccc1): 0.46 | photoluminescence quantum yield (in ClCCl): 0.45

SMILES: CCN(CC)c1ccc2cc(C#N)/c(=N\C(=O)C(C)C)oc2c1
photoluminescence quantum yield (in CCO): 0.047 | photoluminescence quantum yield (in ClCCl): 0.83

SMILES: O=c1c2cc(F)c(O)cc2oc2cc(N3CCCCC3)c(F)cc12
photoluminescence quantum yield (in CCO): 0.23

SMILES: C(#Cc1cc2ccc3cccc4ccc(c1)c2c34)c1ccccc1
photoluminescence quantum yield (in Cc1ccccc1): 0.44

SMILES: F[B-]1(F)n2cccc2C(c2ccc(-c3c4ccccc4c(-c4ccccc4)c4ccccc34)cc2)=C2C=CC=[N+]21
photoluminescence quantum yield (in CC#N): 0.001 | photoluminescence quantum yield (in CCCCCC): 0.014 | photoluminescence quantum yield (in CCO): 0.003 | photoluminescence quantum yield (in CN(C)C=O): 0.002 | photoluminescence quantum yield (in Cc1ccccc1): 0.036 | photoluminescence quantum yield (in ClCCl): 0.002

SMILES: CCOC(=O)c1[nH]c(C)c(/C=C/c2c(I)c(C)c3n2[B-](F)(F)[N+]2=C(C)C(I)=C(C)C2=C3c2cc(OC)cc(OC)c2)c1C
photoluminescence quantum yield (in C1CCOC1): 0.22 | photoluminescence quantum yield (in CS(C)=O): 0.23 | photoluminescence quantum yield (in ClCCl): 0.21

SMILES: Cc1cccc(C)c1/C=C/c1nc(N2CCOCC2)c2c([n+]1[O-])CCCC2
photoluminescence quantum yield (in ClCCl): 0.29

SMILES: CCCCCCCCCCCCn1cccc1/C=C/c1cc(OCCCC)c(/C=C/c2cccn2CCCCCCCCCCCC)cc1OCCCC
photoluminescence quantum yield (in Cc1ccccc1): 0.4

SMILES: CC1(C)c2ccccc2N(c2ccc(-c3nc4cc(C#N)c(C#N)cc4nc3-c3ccc(N4c5ccccc5C(C)(C)c5ccccc54)cc3)cc2)c2ccccc21
photoluminescence quantum yield (in Cc1ccccc1): 0.91

SMILES: [O-]c1ccccc1-c1[nH+]c2c3ccccc3c3ccccc3c2o1
photoluminescence quantum yield (in Cc1ccccc1): 0.111

SMILES: COc1cccc(-c2c3ccccc3c3n2[B-](F)(F)[N+]2=Cc4c5ccccc5c(-c5cccc(OC)c5)n4[B-](F)(F)[N+]2=C3)c1
photoluminescence quantum yield (in CC#N): 0.24 | photoluminescence quantum yield (in CCCCCC): 0.34 | photoluminescence quantum yield (in CN(C)C=O): 0.27 | photoluminescence quantum yield (in Cc1ccccc1): 0.34 | photoluminescence quantum yield (in ClCCl): 0.36

SMILES: F[B-]1(F)n2c(c3cccc4cccc2c43)=Nc2cccc(Cl)[n+]21
photoluminescence quantum yield (in C1CCOC1): 0.99 | photoluminescence quantum yield (in CC#N): 0.99 | photoluminescence quantum yield (in CCCCCC): 0.99 | photoluminescence quantum yield (in Cc1ccccc1): 0.99 | photoluminescence quantum yield (in ClCCl): 0.99

SMILES: CC1=CC(C)=[N+]2C1=C(c1c3ccccc3cc3ccccc13)c1c(C)cc(C)n1[B-]2(F)F
photoluminescence quantum yield (in CC#N): 0.006 | photoluminescence quantum yield (in CCCCCC): 0.99 | photoluminescence quantum yield (in CCO): 0.038 | photoluminescence quantum yield (in CN(C)C=O): 0.011 | photoluminescence quantum yield (in Cc1ccccc1): 0.92 | photoluminescence quantum yield (in ClCCl): 0.072

Second part, the molecule after the results:

photoluminescence quantum yield (in ClCCl): 0.88 | photoluminescence quantum yield (in c1cc(-n2c3ccccc3c3ccccc32)cc(-n2c3ccccc3c3ccccc32)c1): 0.83
SMILES: CC(C)(C)c1ccc2c(c1)c1cc(C(C)(C)C)ccc1n2-c1ccc(-c2ccc3c(c2)C2(c4cc(-c5ccc(-n6c7ccc(C(C)(C)C)cc7c7cc(C(C)(C)C)ccc76)cc5)ccc4-3)c3ccccc3S(=O)(=O)c3ccccc32)cc1

photoluminescence quantum yield (in C1CCOC1): 0.061
SMILES: F[Si-](F)(c1ccccc1)(c1ccccc1)c1cccc2ccccc12

photoluminescence quantum yield (in CO): 0.007
SMILES: Cc1ccc2nnn(-c3c(C#N)c4c(N)ncnc4n3[C@H]3C[C@H](O)[C@@H](CO)O3)c2c1

photoluminescence quantum yield (in C1CCCCC1): 0.368
SMILES: COC(=O)c1noc(-c2ccccc2)c1Cl

photoluminescence quantum yield (in ClC(Cl)Cl): 0.03
SMILES: CCCCCCN1C(=O)c2cccc3cc(/N=C\c4cn(C)c5ccccc45)cc(c23)C1=O

photoluminescence quantum yield (in ClCCl): 0.03
SMILES: COc1ccc(C#Cc2c3cc4ccccc4cc3c(C#Cc3ccc(OC)cc3)c3cc4ccccc4cc23)cc1

photoluminescence quantum yield (in CCO): 0.22
SMILES: CCOC(=O)c1cc(C(=O)OCC)c2c(C)ccc(OC(=O)OC(C)(C)C)c2n1

photoluminescence quantum yield (in ClCCl): 0.41
SMILES: CC(C)(C)c1ccc(C#Cc2cc(C#Cc3ccc(C(C)(C)C)cc3)c(C#Cc3ccc(C(C)(C)C)cc3)c(C#Cc3ccc(C(C)(C)C)cc3)c2C#Cc2ccc(C(C)(C)C)cc2)cc1

photoluminescence quantum yield (in ClCCl): 0.38
SMILES: C[Si]1(C)c2ccc(-c3ccccc3)cc2C=Cc2cc(-c3ccccc3)ccc21

photoluminescence quantum yield (in ClC(Cl)Cl): 0.162
SMILES: CC[Si](CC)(CC)c1cc2ccc3cccc4ccc(c1C(=O)NC(C)(C)C)c2c34

photoluminescence quantum yield (in C1CCCCC1): 0.82 | photoluminescence quantum yield (in C1CCOC1): 0.57 | photoluminescence quantum yield (in CC#N): 0.75 | photoluminescence quantum yield (in CCO): 0.8 | photoluminescence quantum yield (in CO): 0.65 | photoluminescence quantum yield (in ClC(Cl)Cl): 0.49
SMILES: CCCCCCOc1ccc(-c2cnc(-c3nnc(-c4ccc(OCCCCCC)cc4)o3)o2)cc1

photoluminescence quantum yield (in C1CCOC1): 0.032 | photoluminescence quantum yield (in CCCCCC): 0.887 | photoluminescence quantum yield (in ClC(Cl)Cl): 0.198 | photoluminescence quantum yield (in ClCCl): 0.032
SMILES: O=C1c2cccc3c(-n4c5ccccc5c5ccccc54)ccc(c23)C(=O)N1c1ccccc1

photoluminescence quantum yield (in ClCCl): 0.196
SMILES: CCCCCCCCCCCCN1C(=O)c2c(c3ccc4cc(-c5ccc(OC)cc5)c(OC)cc4c3c3c2ccc2cc(-c4ccc(OC)cc4)c(OC)cc23)C1=O

photoluminescence quantum yield (in CN(C)C=O): 0.036
SMILES: Cc1ccc2nc(-c3cccc4nc(C)[nH]c(=O)c34)[nH]c2c1

photoluminescence quantum yield (in C1COCCO1): 0.108
SMILES: COc1ccc(C2=C/C(=C\c3ccccc3)C(=O)N2)cc1OC

photoluminescence quantum yield (in C1CCCCC1): 0.034 | photoluminescence quantum yield (in CC#N): 0.0018 | photoluminescence quantum yield (in CCO): 0
SMILES: COc1ccc2c(c1)C(=O)c1ccccc1-2

photoluminescence quantum yield (in ClCCl): 0.01
SMILES: CSc1ccc(/C=C/c2ccncn2)cc1

photoluminescence quantum yield (in C1CCCCC1): 0.11
SMILES: COc1ccc(C2=C(c3ccc(OC)cc3)C(C)(C)c3ccc4ccccc4c32)cc1

photoluminescence quantum yield (in CCCCCC): 0.35 | photoluminescence quantum yield (in CO): 0.31 | photoluminescence quantum yield (in ClCCl): 0.41
SMILES: CCCCc1ccc2ccc3cccc4ccc1c2c34

photoluminescence quantum yield (in ClCCl): 0.741
SMILES: CC(C)[Si](C#Cc1ccc2c(C#C[Si](C(C)C)(C(C)C)C(C)C)cc3c4cc(C#C[Si](C(C)C)(C(C)C)C(C)C)ccc4c(C#C[Si](C(C)C)(C(C)C)C(C)C)cc3c2c1)(C(C)C)C(C)C

photoluminescence quantum yield (in C1CCOC1): 0.045
SMILES: N#C/C(=C\c1ccc(C=C(c2ccccc2)c2ccccc2)cc1)c1ccccc1

photoluminescence quantum yield (in C1COCCO1): 0.355
SMILES: COC(=O)c1ccc(/C=C2\C=C(c3ccc(OC)c(OC)c3)OC2=O)cc1

photoluminescence quantum yield (in ClCCl): 0.25
SMILES: O=P1(c2ccccc2)c2cccc3c4ccccc4c4ccc1n4c23 (stereo not given)

photoluminescence quantum yield (in ClCCl): 0.47
SMILES: CCC1=C(CC)c2cccc3c2c(cc2nc4ccccc4nc23)O1

photoluminescence quantum yield (in ClCCl): 0.9
SMILES: F[B-]1(F)n2c(nc3c4ccccc4c4ccccc4c32)-c2ccc3ccccc3[n+]21

photoluminescence quantum yield (in ClCCl): 0.8
SMILES: CC(C)(C)c1ccc2c(c1)c1cc(C(C)(C)C)ccc1n2-c1ccc(C#Cc2ccccc2)cc1

photoluminescence quantum yield (in ClCCl): 0.13
SMILES: CCCCCC(=O)c1cccc2sc3c(c12)P(=O)(c1ccccc1)c1ccccc1-3 (stereo not given)

photoluminescence quantum yield (in C1CCCCC1): 0.18 | photoluminescence quantum yield (in CC#N): 0.04
SMILES: C[Si](C)(c1ccc2cc3ccccc3cc2c1)[Si](C)(C)c1ccc2cc3ccccc3cc2c1

photoluminescence quantum yield (in C1CCOC1): 0.88 | photoluminescence quantum yield (in C1COCCO1): 0.78 | photoluminescence quantum yield (in CC#N): 0.75 | photoluminescence quantum yield (in CC(C)O): 0.52 | photoluminescence quantum yield (in CCO): 0.47 | photoluminescence quantum yield (in CCOC(C)=O): 0.87 | photoluminescence quantum yield (in CN(C)C=O): 0.89 | photoluminescence quantum yield (in CO): 0.36 | photoluminescence quantum yield (in CS(C)=O): 0.93 | photoluminescence quantum yield (in O): 0.57
SMILES: NS(=O)(=O)c1ccc(N2N=C(c3ccc(O)cc3)CC2c2ccc(F)cc2)cc1 (stereo not given)

photoluminescence quantum yield (in CC#N): 0.2 | photoluminescence quantum yield (in CCCCCC): 0.13 | photoluminescence quantum yield (in CO): 0.131
SMILES: c1ccc2c(c1)CCc1ccccc1N2

photoluminescence quantum yield (in C1CCOC1): 0.77
SMILES: C[Si](C)(C)c1ccc(-c2ccc(-c3ccc(-c4ccc(-c5ccc([Si](C)(C)C)cc5)s4)c4nsnc34)s2)cc1

photoluminescence quantum yield (in CO): 0.55 | photoluminescence quantum yield (in O): 0.29
SMILES: CC1(C)C(/C=C/C=C/C=C/C=C2/N(S(=O)(=O)[O-])c3ccc(S(=O)(=O)[O-])cc3C2(C)C)=[N+](S(=O)(=O)[O-])c2ccc(S(=O)(=O)[O-])cc21

photoluminescence quantum yield (in CS(C)=O): 0.62
SMILES: COc1cccc(-c2nc3sc4ccccc4c3s2)c1
